According to ChEMBL document CHEMBL1201862, “PubChem BioAssay data set” (2004):
Active and inactive are the calls of the source.

Experiments:
[1] = biological target: G2/mitotic-specific cyclin-B1 (Homo sapiens, UniProt P14635); experiment: Counterscreen assay for inhibitors of Wee1 degradation: dose response cell-based assay to identify inhibitors of cyclin B degradation. [Related pubchem assays: 1410, 1321 ]; assay type: functional
HeLa = experiment: Cytotoxicity counterscreen assay for transcriptional activators of heat shock protein 70 (Hsp70). [Related pubchem assays: 1203, 1252 ]; assay type: functional; conditions: Homo sapiens;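 note: cells exposed to compound for 16 hours before readout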
Wee1-like protein kinase = Wee1-like protein kinase (Homo sapiens, UniProt P30291); experiment: Dose Response Cell-based Assay for Inhibitors of Wee1 Degradation. [Related pubchem assays: 1410, 1321 ]; assay type: functional
[2] = biological target: T1, Heat shock factor protein 1 (Mus musculus, UniProt P38532); experiment: inhibition of MG132-induced HSE-luciferase signal, confirmation, cell-based, NIH3T3, luminescence, dose retest (AID 2382); assay type: functional;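 note: NIH3T3 fibroblasts with HSF1-driven luciferase reporter stressed by proteasome inhibitor MG132; luminescence from HSF1-driven luciferase expression after 8 hours of MG132 stress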
T1 sequence (P38532 whole entry): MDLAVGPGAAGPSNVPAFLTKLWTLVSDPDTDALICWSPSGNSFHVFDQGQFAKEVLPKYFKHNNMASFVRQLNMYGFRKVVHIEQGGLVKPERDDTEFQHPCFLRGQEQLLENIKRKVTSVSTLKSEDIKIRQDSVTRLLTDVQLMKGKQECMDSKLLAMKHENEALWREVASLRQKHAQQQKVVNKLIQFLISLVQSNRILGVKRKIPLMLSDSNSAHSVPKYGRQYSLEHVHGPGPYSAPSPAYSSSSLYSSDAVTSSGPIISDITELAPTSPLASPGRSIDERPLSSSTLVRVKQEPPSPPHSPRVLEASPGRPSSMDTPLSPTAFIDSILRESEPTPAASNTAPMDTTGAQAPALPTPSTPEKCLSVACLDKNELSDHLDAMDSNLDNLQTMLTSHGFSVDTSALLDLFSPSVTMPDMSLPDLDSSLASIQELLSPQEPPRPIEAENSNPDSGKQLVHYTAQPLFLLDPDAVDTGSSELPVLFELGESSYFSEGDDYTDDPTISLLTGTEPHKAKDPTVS

[3] = THP-1 cell cytotoxicity, dose response, cytotoxicity control for non-replicating M. tuberculosis project (AID 489025); assay type: functional
[4] = HepG2 cell cytotoxicity, dose response, cytotoxicity control for non-replicating M. tuberculosis project (AID 489018); assay type: functional; conditions: Mycobacterium tuberculosis
[5] = Vero E6 cell cytotoxicity, dose response, cytotoxicity control for non-replicating M. tuberculosis project, secondary assay (AID 492998); assay type: functional, VeroE6; conditions: Vero C1008
[6] = cytotoxicity in HEK-293T cells, dose response, cytotoxicity control for TCR NF-kB inhibitor project, luminescence, T-cell screen hits (AID 489026); assay type: functional, cell-based;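 note: cells exposed to compound about 14 hours before the viability readout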
cells = assay type: functional
[7] = Shn3 3'UTR reporter inhibitors, dose response, cell-based, Clone20 osteoblasts, firefly luciferase, cherry-picked (AID 624132); assay type: functional;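 note: firefly luciferase luminescence from reporter carrying the Shn3 3'UTR in osteoblasts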
[8] = HepG2 cell cytotoxicity, dose response, cytotoxicity control for Shn3 inhibitor project, CellTiter-Glo, cherry-picked (AID 624134); assay type: functional, cell-based
[9] = control 3'UTR Renilla luciferase suppression, dose response, counter-screen for Shn3 inhibitor project, cell-based, Clone20-Shn3RL, cherry-picked (AID 624133); assay type: functional
[10] = A549 cell cytotoxicity, dose response, cytotoxicity control, plate reader, cherry-pick, antagonist series (AID 743412); assay type: functional, cell-based
[11] = HepG2 cell cytotoxicity, dose response, cytotoxicity control, plate reader, cherry-pick, antagonist series (AID 743416); assay type: functional, cell-based
[12] = LGR2 antagonists, dose response, cell-based, HEK293, CRE-luciferase reporter, cherry pick, set 2 (AID 743343); assay type: functional;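 note: transfected cells were stimulated with diluted bursicon conditioned medium after compound addition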
[13] = MC4R antagonists, dose response, counter-screen for LGR2 antagonist project, cell-based, plate reader, cherry pick (AID 743444); assay type: functional;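 note: transfected HEK 293 cells stimulated with alpha-MSH peptide; potency of inhibitors of the alpha-MSH evoked signal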
[14] = HEK293 cell cytotoxicity, dose response, cytotoxicity control, plate reader, cherry-picked samples (AID 743446); assay type: functional, cell-based
[15] = biological target: T2, E3 ubiquitin-protein ligase XIAP (Homo sapiens, UniProt P98170); experiment: Counter Screen using XIAP-Bir3 for Chemical Antagonists of Bir1/2 domains of IAP-family anti-apoptotic proteins. [Related pubchem assays (depositor defined):AID1018, AID1449, AID1514, AID1638, AID1749, AID1750, AID488957, AID488963]
[16] = biological target: T2, E3 ubiquitin-protein ligase XIAP; experiment: XIAP antagonists, biochemical, IAP family, fluorescence polarization (AID 1018); assay type: functional
[17] = biological target: Peroxisome proliferator-activated receptor gamma/Nuclear receptor coactivator 1 (Homo sapiens, UniProt P37231); experiment: (§1) TR-FRET dose response biochemical High Throughput Screening assay for agonists of the steroid receptor coactivator 1 (SRC-1) recruitment by the peroxisome proliferator-activated receptor gamma (PPAR gamma): non-selective agonists. [Related pubchem assays (depositor defined):AID1300, AID1808, AID504735, AID631]; assay type: protein assay
[18] = biological target: Peroxisome proliferator-activated receptor gamma/Nuclear receptor coactivator 3 (Homo sapiens, UniProt P37231); experiment: as §1, with “3 (SRC-3)” for “1 (SRC-1)”, “assays: 1301 (Confirmation screen.), 1048 (Primary screen.)]” for “assays (depositor defined):AID1300, AID1808, AID504735, AID631]”; assay type: functional
[19] = biological target: Peroxisome proliferator-activated receptor gamma/Nuclear receptor coactivator 2 (Homo sapiens, UniProt P37231); experiment: TR-FRET dose response biochemical High Throughput Screening assay for agonists of the steroid receptor coactivator 2 (SRC-2) recruitment by the peroxisome proliferator-activated receptor gamma (PPAR gamma): non-selective agonists. [Related pubchem assays: 1297, 1032 ]; assay type: functional
[20] = biological target: FAD-linked sulfhydryl oxidase ALR (Homo sapiens, UniProt P55789); experiment: inhibitors of human ALR sulfhydryl oxidase, dose response, biochemical, H2O2 detection, luminescence, cherry-pick (AID 493248)
Troponin, cardiac muscle = Troponin, cardiac muscle (Homo sapiens, UniProt P19429+P45379+P63316); experiment: Fluorescence-based biochemical high throughput dose response assay for activators of the calcium sensitivity of cardiac Regulated Thin Filaments (RTF). [Related pubchem assays (depositor defined):AID493008, AID493018, AID504382, AID504383]; assay type: protein-complex assay
[21] = biological target: Kappa-type opioid receptor (Homo sapiens, UniProt P41145); experiment: SAR analysis of small molecule agonists of the kappa opioid receptor via a luminescent beta-arrestin assay - Set 3. [Related pubchem assays (depositor defined):AID1777, AID1785, AID1786, AID1966, AID2133, AID2136, AID2284, AID2500]; assay type: functional
Ion channel NompC = Ion channel NompC (Danio rerio, UniProt Q7T1G6); experiment: Dose response cell-based high-throughput screening assay for agonists of the transient receptor potential channel N1 (TRPN1). [Related pubchem assays (depositor defined):AID1424, AID1448]; assay type: functional
Mucolipin-3 = biological target: T3, Mucolipin-3 (Homo sapiens, UniProt Q8TDD5); experiment: Fluorescence counterscreen assay for […] agonists: dose response cell-based high-throughput screening assay to identify agonists of the transient receptor potential channel ML3 (TRPML3). [Related pubchem assays: 1424, 1448 ]; assay type: functional
T3 sequence (Q8TDD5 whole entry): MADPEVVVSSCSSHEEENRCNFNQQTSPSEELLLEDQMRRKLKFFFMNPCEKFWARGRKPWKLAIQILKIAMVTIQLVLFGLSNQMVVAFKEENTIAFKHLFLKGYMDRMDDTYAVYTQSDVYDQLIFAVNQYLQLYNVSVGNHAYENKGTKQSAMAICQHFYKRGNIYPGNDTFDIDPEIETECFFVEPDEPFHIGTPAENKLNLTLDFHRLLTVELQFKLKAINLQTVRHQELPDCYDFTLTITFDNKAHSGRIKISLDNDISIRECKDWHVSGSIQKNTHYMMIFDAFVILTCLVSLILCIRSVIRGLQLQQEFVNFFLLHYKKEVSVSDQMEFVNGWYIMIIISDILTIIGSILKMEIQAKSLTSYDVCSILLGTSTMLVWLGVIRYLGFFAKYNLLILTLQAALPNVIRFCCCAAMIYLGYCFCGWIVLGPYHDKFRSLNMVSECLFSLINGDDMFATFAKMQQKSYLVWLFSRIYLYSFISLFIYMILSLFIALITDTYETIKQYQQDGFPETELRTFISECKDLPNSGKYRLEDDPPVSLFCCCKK

HEK293 = experiment: Fluorescence-based counterscreen for potentiators or agonists of NPY-Y2: cell-based high-throughput dose response assay to identify inhibitors of cyclic nucleotide gated ion channel (CNGC) activity. In this assay, the parental HEK293 cell line transfected with a cyclic-nucleotide gated ion channel (CNGC)-based cAMP sensor is used to measure inhibition of isoproterenol-induced CNGC activity by test compound.; assay type: functional; conditions: Homo sapiens;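 note: stimulus is 1 µM isoproterenol at EC100 plus PDE inhibitor Ro 20-1724 at 25 µM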
[22] = biological target: T4, Runt-related transcription factor 1/Core-binding factor subunit beta (Homo sapiens, UniProt Q01196+Q13951); experiment: inhibitors of RUNX1 Runt–CBFb-SMMHC binding, primary screen, biochemical, FRET, Cerulean-Runt, Venus-CBFb-SMMHC, uHTS (AID 1434); assay type: protein assay;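 note: partner is the CBFb-SMMHC leukemia fusion protein rather than wild-type CBFb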
[23] = biological target: T5, Neuropeptide Y receptor type 2 (Homo sapiens, UniProt P49146); experiment: Fluorescence-based cell-based high-throughput dose response assay for agonists of NPY-Y2. [Related pubchem assays: 1703 (Screening assay (CNGC inhibitors).), 1359 (Screening assay (NPY-Y2 potentiators or agonists).), 1304 (Screening assay (NPY-Y1 potentiators or agonists).), 1710 (Screening assay (NPY-Y2 agonists).), 1791 (Summary AID.)]; assay type: functional
T5 sequence (P49146 whole entry): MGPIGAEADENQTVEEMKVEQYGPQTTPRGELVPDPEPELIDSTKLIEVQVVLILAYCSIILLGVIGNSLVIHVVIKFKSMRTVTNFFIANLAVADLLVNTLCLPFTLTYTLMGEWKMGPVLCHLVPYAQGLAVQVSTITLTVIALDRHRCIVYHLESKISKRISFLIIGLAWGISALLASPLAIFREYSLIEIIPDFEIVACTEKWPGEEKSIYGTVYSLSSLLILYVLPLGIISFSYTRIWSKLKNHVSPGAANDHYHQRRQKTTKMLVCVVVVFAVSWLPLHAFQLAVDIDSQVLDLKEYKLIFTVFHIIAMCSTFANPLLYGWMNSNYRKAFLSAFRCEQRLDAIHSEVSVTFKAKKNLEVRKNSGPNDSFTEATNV

[24] = biological target: T4, Runt-related transcription factor 1/Core-binding factor subunit beta; experiment: inhibitors of RUNX1 Runt–CBFb-SMMHC binding, biochemical, TR-FRET (AID 1438); assay type: protein assay
[25] = biological target: T6, Neuropeptide Y receptor type 1 (Homo sapiens, UniProt P25929); experiment: Fluorescence-based counterscreen for agonists of NPY-Y2: cell-based high-throughput dose response assay for agonists of NPY-Y1.; assay type: functional
T6 sequence (P25929 whole entry): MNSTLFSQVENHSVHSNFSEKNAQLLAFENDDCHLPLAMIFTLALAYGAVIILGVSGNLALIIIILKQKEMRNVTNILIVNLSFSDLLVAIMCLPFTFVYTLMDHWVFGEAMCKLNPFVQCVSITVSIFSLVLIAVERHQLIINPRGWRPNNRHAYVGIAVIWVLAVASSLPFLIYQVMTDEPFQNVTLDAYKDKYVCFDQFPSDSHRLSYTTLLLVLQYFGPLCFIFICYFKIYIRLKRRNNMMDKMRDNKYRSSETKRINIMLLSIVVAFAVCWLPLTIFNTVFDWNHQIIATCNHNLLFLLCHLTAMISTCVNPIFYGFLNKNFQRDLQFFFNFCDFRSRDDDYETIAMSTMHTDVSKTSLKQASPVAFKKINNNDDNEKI

For `O=C1C=CC(O)(c2cc(=O)c3c(O)cc(O)cc3o2)C=C1` [PROTOAPIGENONE], the EC50 [1] was > 1.84 µM (active), the CC50 (HeLa) was > 1.22 µM (not active) and the EC50 (Wee1-like protein kinase) was > 1.84 µM (active). The EC50 [2] was 4.28 µM (active), the CC50 [3] was 2.6 µM (active) and the CC50 [4] was 5.74 µM (active). For the same compound, the CC50 [5] was 3.28 µM (active), the IC50 [6] was > 80 µM (inactive) and the IC50 (cells) was 3.02 µM (active). The AC50 [7] was 5.12 µM (active), the AC50 [8] was 32.3 µM (active) and the AC50 [9] was 4.47 µM (active). The AC50 [10] was 6.31 µM (active), the AC50 [11] was 7.09 µM (active) and the AC50 [12] was 21.4 µM (active). The AC50 [13] was 27.1 µM (active) and the AC50 [14] was 5.13 µM (active).
For `CCOc1ccc(NC(=S)NCCCN2CCN(C3CCCCC3)CC2)cc1`, the IC50 [15] was > 100 µM (inactive) and the IC50 [16] was > 100 µM (not active).
With `Cc1c(Cl)c(-c2nnc(S)n2-c2ccccc2)nn1C` the EC50 [17] was > 79.4 µM (inactive), the EC50 [18] was > 79.4 µM (not active) and the EC50 [19] was > 79.4 µM (not active). The AC50 [20] was < 0.014 µM (active).
With `COC(=O)C(=N/Nc1ccccc1C(=O)OC)/C(C)=N/O` the EC50 (Troponin, cardiac muscle) was > 71.5 µM (inactive).
For `COc1ccc(Cn2c(SCc3ccc(Br)cc3)nnc2-c2ccccn2)cc1`, the EC50 [21] was > 20 µM (inactive).
For `COC(=O)c1cccc(NC(=O)Nc2ccc(Cl)cc2)c1`, the EC50 (Ion channel NompC) was > 29.9 µM (inactive) and the EC50 (Mucolipin-3) was > 29.9 µM (not active).
In the case of `Cc1cc(/C=N/NC(=O)Cn2c3ccccc3c(=O)c3ccccc32)c(C)n1-c1ccc(Cl)cc1`, the EC50 (HEK293) is reported as 3.28 µM (active), the IC50 [22] is reported as 4.69 µM (active) and the EC50 [23] is reported as > 35.4 µM (not active). The IC50 [24] was 11.6 µM (active) and the EC50 [25] was > 35.4 µM (not active).
